This passage reports logP and Efficacy results from patent US9617286B2, “Fungicide N-[(trisubstitutedsilyl)methyl]-carboxamide derivatives” (BAYER INTELLECTUAL PROPERTY GMBH, priority 2011, dated 2017).

A short description of data set [1]: log P by HPLC on reversed-phase column (C 18), EEC Directive 79/831 Annex V.A8. It is filed as physicochemical. The settings on record: 40° C., 0.1% aqueous formic acid and acetonitrile, linear gradient 10% to 90% acetonitrile. The protocol:
In table 1, the log P values were determined in accordance with EEC Directive 79/831 Annex V.A8 by HPLC (High Performance Liquid Chromatography) on a reversed-phase column (C 18), using the method described below:
Temperature: 40° C.; Mobile phases: 0.1% aqueous formic acid and acetonitrile; linear gradient from 10% acetonitrile to 90% acetonitrile.
Calibration was carried out using unbranched alkan-2-ones (comprising 3 to 16 carbon atoms) with known log P values (determination of the log P values by the retention times using linear interpolation between two successive alkanones). lambda-max-values were determined using UV-spectra from 200 nm to 400 nm and the peak values of the chromatographic signals.

A further data set deals with Alternaria brassicae. The experiment in a line: In vivo preventive test on Alternaria brassicae (leaf spot on radish). The settings on record: preventive spray, 500 ppm of active ingredient, grading 6 days after contamination. The protocol: Radish plants (“Pernod Clair” variety), sown in starter cups on a 50/50 peat soil pozzolana substrate and grown at 17° C., are treated at the cotyledon stage by spraying with the active ingredient prepared as described above. Plants, used as controls, are treated with the mixture of acetone/tween/DMSO/water not containing the active material. After 24 hours, the plants are contaminated by spraying the cotyledons with an aqueous suspension of Alternaria brassicae spores (50 000 spores per mL). The spores are collected from a 15-day-old culture. The contaminated radish plants are incubated at 20° C. and at 100% relative humidity. Grading (% of efficacy) is carried out 6 days after the contamination, in comparison with the control plants.

The next data set concerns Pyrenophora teres. The experiment in a line: In vivo preventive test on Pyrenophora teres (barley). The settings on record: preventive spray (DMF/alkylaryl polyglycol ether), 500 ppm of active ingredient, evaluated 7-9 days after inoculation. Here is the method:
(§1) Solvent: 49 parts by weight of N,N-dimethylformamide Emulsifier: 1 part by weight of alkylaryl polyglycol ether To produce a suitable preparation of active compound, 1 part by weight of active compound is mixed with the stated amounts of solvent and emulsifier, and the concentrate is diluted with water to the desired concentration. To test for preventive activity, young plants are sprayed with the preparation of active compound at the stated rate of application. One day after this treatment, the plants are inoculated with an aqueous spore suspension of Pyrenophora teres. The plants remain for 48 hours in an incubation cabinet at 22° C. and a relative atmospheric humidity of 100%. Then the plants are placed in a greenhouse at a temperature of approximately 20° C. and a relative atmospheric humidity of approximately 80%.

The test system of a further data set is Septoria tritici. Put plainly: In vivo preventive test on Septoria tritici (wheat). The settings on record: preventive spray, 500 ppm of active ingredient, grading 24 days after contamination. Here is the method: Wheat plants (“Scipion” variety), sown in starter cups on a 50/50 peat soil pozzolana substrate and grown at 22° C., are treated at the 1 leaf stage (10 cm height) by spraying with the active ingredient prepared as described above. Plants, used as controls, are treated with the mixture of acetone/tween/DMSO/water not containing the active material. After 24 hours, the plants are contaminated by spraying the leaves with an aqueous suspension of cryopreserved Septoria tritici spores (500 000 spores per mL). The contaminated wheat plants are incubated for 72 hours at 18° C. and at 100% relative humidity, and then for 21 days at 90% relative humidity. Grading (% of efficacy) is carried out 24 days after the contamination, in comparison with the control plants.

The next data set has as its system Puccinia recondita. The experiment in a line: In vivo preventive test on Puccinia recondita (brown rust on wheat). Conditions: preventive spray, 500 ppm of active ingredient, grading 12 days after contamination. Here is the method: Wheat plants (“Scipion” variety), sown in starter cups on a 50/50 peat soil pozzolana substrate and grown at 22° C., are treated at the 1 leaf stage (10 cm height) by spraying with the active ingredient prepared as described above. Plants, used as controls, are treated with the mixture of acetone/tween/DMSO/water not containing the active material. After 24 hours, the plants are contaminated by spraying the leaves with an aqueous suspension of Puccinia recondita spores (100 000 spores per mL). The spores are collected from an infected plant and are suspended in water containing 2.5 mL/L of Tween 80 at 10%. The contaminated wheat plants are incubated for 24 hours at 20° C. and at 100% relative humidity, and then for 10 days at 20° C. and at 70-80% relative humidity. Grading (% of efficacy) is carried out 12 days after the contamination, in comparison with the control plants.

In a further data set the test system is Botrytis cinerea. The experiment in a line: In vivo preventive test on Botrytis cinerea (cucumber). Conditions: preventive spray (DMF/alkylaryl polyglycol ether), 500 ppm of active ingredient, evaluated 5-6 days after inoculation. The protocol: (§2) Solvent: 49 parts by weight of N,N-dimethylformamide Emulsifier: 1 part by weight of alkylaryl polyglycol ether To produce a suitable preparation of active compound, 1 part by weight of active compound is mixed with the stated amounts of solvent and emulsifier, and the concentrate is diluted with water to the desired concentration. To test for preventive activity, young plants are sprayed with the preparation of active compound at the stated rate of application. One day after this treatment, the plants are inoculated with an aqueous spore suspension of Botrytis cinerea. The plants remain for two days in an incubation cabinet at approximately 22° C. and a relative atmospheric humidity of 100%. Then the plants are placed in an incubation cabinet at approximately 14° C. and a relative atmospheric humidity of 96%.

Another data set relates to Alternaria solani. Put plainly: In vivo preventive test on Alternaria solani (tomato). Conditions: preventive spray, 500 ppm of active ingredient, evaluated 7 days after inoculation. Here is the method:
as §2, with “Alternaria solani.” for “Botrytis cinerea.”, “one day” for “two days”, “20°” for “14°”

The test system of the next data set is Sphaerotheca fuliginea. The experiment in a line: In vivo preventive test on Sphaerotheca fuliginea (powdery mildew on cucurbits). The settings on record: gherkin plants, preventive spray, 500 ppm of active ingredient, grading 12 days after contamination. The protocol:
Gherkin plants (“Vert petit de Paris” variety), sown in starter cups on a 50/50 peat soil-pozzolana substrate and grown at 24° C., are treated at the Z11 cotyledon stage by spraying with the active ingredient prepared as described above. Plants, used as controls, are treated with the mixture of acetone/tween/DMSO/water not containing the active material. After 24 hours, the plants are contaminated by spraying the cotyledons with an aqueous suspension of Sphaerotheca fuliginea spores (100 000 spores per mL). The spores are collected from infected plants. The contaminated gherkin plants are incubated at about 20° C. and at 70-80% relative humidity. Grading (% of efficacy) is carried out 12 days after the contamination, in comparison with the control plants.

A further data set deals with Leptosphaeria nodorum. The experiment in a line: In vivo preventive test on Leptosphaeria nodorum (wheat). The settings on record: preventive spray, 500 ppm of active ingredient, evaluated 7-9 days after inoculation. The protocol: as §1, with “sprayed with a preparation of” for “sprayed with the preparation of”, “suspension of Leptosphaeria nodorum. The plants” for “suspension of Pyrenophora teres. The plants”, “of approximately 22° C. and” for “of approximately 20° C. and”, “of approximately 90%.” for “of approximately 80%.”

As a reminder, the logP is a log measure of how a compound divides between an organic and an aqueous phase.

Consider `C[Si](C)(CN(C(=O)c1nccnc1C(F)(F)F)C1CC1)c1cc(F)ccc1Cl` [Example 49], for which the logP in data set [1] is on record as 4.59. The Efficacy in the data set with Alternaria brassicae is 75%; in the data set with Pyrenophora teres, 97%; with Septoria tritici, 100%; in the data set with Puccinia recondita, 88%.

The molecule `C[Si](C)(CN(C(=O)c1nccnc1C(F)(F)F)C1CC1)c1ccsc1` [Example 86] showed a logP in data set [1] of 3.94. Besides, the values for the Efficacy in the data set on Botrytis cinerea, with Alternaria solani and in the data set with Pyrenophora teres were 80%, 75% and 90%, respectively.

Take `CC[Si](C)(CN(C(=O)c1nccnc1C(F)(F)F)C1CC1)c1ccccc1Cl` (stereo not shown) [Example 44]: the Efficacy in the data set on Sphaerotheca fuliginea came to 94%; in the data set on Alternaria brassicae, 75%; with Pyrenophora teres it was 93%; with Septoria tritici it was 86%; with Puccinia recondita, 75%. This molecule showed a logP in data set [1] of 4.95.

In turn, `C[Si](C)(CN(C(=O)c1nccnc1C(F)(F)F)C1CC1)c1cccc2ccccc12` [Example 72] had a logP in data set [1] of 4.77. In addition, the Efficacy with Alternaria solani amounted to 89%; with Pyrenophora teres, 95%; with Leptosphaeria nodorum, 80%.

Turning to `Cc1ccccc1[Si](C)(C)CN(C(=O)c1nccnc1C(F)(F)F)C1CC1` [Example 10], the Efficacy in the data set on Sphaerotheca fuliginea amounted to 78%; in the data set on Alternaria brassicae it was 88%; with Pyrenophora teres it was 100%; in the data set on Septoria tritici, 79%. The molecule further returned a logP in data set [1] of 4.41.

Consider `C[Si](C)(CN(C(=O)c1cccnc1C(F)F)C1CC1)c1ccccc1C(F)(F)F` [Example 56], for which the Efficacy stood at 83% with Sphaerotheca fuliginea, 88% in the data set with Alternaria brassicae, 100% in the data set on Pyrenophora teres and 100% with Septoria tritici. This molecule returned a logP in [1] of 3.94.

Turning to `C[Si](C)(CN(C(=O)c1cccnc1C(F)F)C1CC1)c1ccccc1` [Example 5], the Efficacy in the data set with Sphaerotheca fuliginea is given as 89%; in the data set on Alternaria brassicae, 96%; in the data set on Septoria tritici it was 80%. The molecule also registered a logP in data set [1] of 3.44.

For the molecule `C[Si](C)(CN(C(=O)c1cccnc1C(F)(F)F)C1CC1)c1cc(F)ccc1Cl` [Example 48], the Efficacy came out at 98% in the data set on Sphaerotheca fuliginea; 75% with Alternaria brassicae; 97% in the data set on Pyrenophora teres; 93% with Septoria tritici; 88% with Puccinia recondita. For the same molecule, the logP in [1] stood at 4.34.

With `CC[Si](C)(CN(C(=O)c1cccnc1C(F)F)C1CC1)c1ccccc1Cl` (stereo not shown) [Example 36], the Efficacy came out at 94% in the data set on Sphaerotheca fuliginea, 90% in the data set with Alternaria brassicae, 90% in the data set with Septoria tritici and 81% in the data set on Puccinia recondita. For the same molecule, the logP in [1] came out at 4.21.

In the case of `Cc1ccccc1[Si](C)(C)CN(C(=O)c1cccnc1C(F)(F)F)C1CC1` [Example 11], the Efficacy was 94% in the data set with Sphaerotheca fuliginea, 88% with Alternaria brassicae, 97% with Pyrenophora teres and 88% with Puccinia recondita. This molecule also displayed a logP in [1] of 4.18.

As for `C[Si](C)(CN(C(=O)c1nccnc1C(F)(F)F)C1CC1)c1ccc(F)cc1Cl` [Example 52], the Efficacy came to 94% in the data set with Sphaerotheca fuliginea, 100% in the data set with Alternaria brassicae, 100% with Pyrenophora teres and 97% in the data set with Septoria tritici. For the same molecule, the logP in data set [1] was 4.67.

`C[Si](C)(Cc1cccc(Cl)c1)CN(C(=O)c1nccnc1C(F)(F)F)C1CC1` [Example 105] yielded a logP in data set [1] of 4.82. Also, the Efficacy worked out at 93% in the data set with Botrytis cinerea and 70% in the data set on Pyrenophora teres.

Turning to `C[Si](C)(Cc1ccccc1Cl)CN(C(=O)c1nccnc1C(F)(F)F)C1CC1` [Example 99], the logP in data set [1] amounted to 4.82. For the same molecule, the Efficacy with Pyrenophora teres and with Leptosphaeria nodorum was 70% each time.

On to `C[Si](C)(CN(C(=O)c1cccnc1Cl)C1CC1)c1cc(F)ccc1Cl` [Example 50], for which the Efficacy came out at 98% in the data set with Sphaerotheca fuliginea, 75% with Alternaria brassicae, 97% in the data set on Pyrenophora teres and 75% with Puccinia recondita. The same molecule displayed a logP in [1] of 3.99.

As for `C[Si](C)(CN(C(=O)c1cccnc1C(F)(F)F)C1CC1)c1ccc(F)cc1Cl` [Example 47], in data set [1], the logP amounted to 4.41. The figures for the Efficacy in the data set on Alternaria brassicae, in the data set with Pyrenophora teres and in the data set on Septoria tritici were 75%, 97% and 93%, respectively.

On to `CCc1ccccc1[Si](C)(C)CN(C(=O)c1cccnc1C(F)(F)F)C1CC1` [Example 20], for which the Efficacy was determined as 100% in the data set on Sphaerotheca fuliginea; 75% in the data set with Alternaria brassicae; 100% in the data set on Pyrenophora teres; 93% in the data set with Septoria tritici; 88% with Puccinia recondita. Besides, the logP in [1] is reported as 4.51.

On to `C[Si](C)(CN(C(=O)c1cccnc1C(F)F)C1CC1)c1cccc2ccccc12` [Example 74], for which, in [1], the logP is given as 4.04. The Efficacy with Alternaria solani worked out at 78%; in the data set with Pyrenophora teres it was 95%; in the data set with Leptosphaeria nodorum, 70%.
